Measured values reported in patent US20230391739A1, “ARYL DERIVATIVES FOR TREATING TRPM3 MEDIATED DISORDERS” (Katholieke Universiteit Leuven, priority 2020, published 2023).

Molecular target: T1, mouse TRPM3α2 (mTRPM3) ion channel (Mus musculus, UniProt J9SQF3)
T1 construct: expressed in transfected cells; host or cells: flip-in HEK293
Assay: TRPM3 ion channel driven Ca2+ uptake, Fluo-4 AM assay, PS-stimulated (mTRPM3)
Format: cell-based
Details: TRPM3 overexpressing flip-in HEK293 cells stimulated with Pregnenolone sulfate (PS) 50 μM, activity ranges A, B, C
Procedure, shortened: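 Flp-In HEK293 cells overexpressing mTRPM3α2 were added, in Ca²⁺-free Krebs, to wells already holding compound and 50 μM pregnenolone sulfate in Ca²⁺-containing Krebs. Fluo-4 AM fluorescence (ex 485/em 535 nm) was read immediately. Percent inhibition was computed from RFU relative to PS/vehicle wells and a positive-control inhibitor.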

T1 sequence (J9SQF3 1-1709 isoform J9SQF3-12): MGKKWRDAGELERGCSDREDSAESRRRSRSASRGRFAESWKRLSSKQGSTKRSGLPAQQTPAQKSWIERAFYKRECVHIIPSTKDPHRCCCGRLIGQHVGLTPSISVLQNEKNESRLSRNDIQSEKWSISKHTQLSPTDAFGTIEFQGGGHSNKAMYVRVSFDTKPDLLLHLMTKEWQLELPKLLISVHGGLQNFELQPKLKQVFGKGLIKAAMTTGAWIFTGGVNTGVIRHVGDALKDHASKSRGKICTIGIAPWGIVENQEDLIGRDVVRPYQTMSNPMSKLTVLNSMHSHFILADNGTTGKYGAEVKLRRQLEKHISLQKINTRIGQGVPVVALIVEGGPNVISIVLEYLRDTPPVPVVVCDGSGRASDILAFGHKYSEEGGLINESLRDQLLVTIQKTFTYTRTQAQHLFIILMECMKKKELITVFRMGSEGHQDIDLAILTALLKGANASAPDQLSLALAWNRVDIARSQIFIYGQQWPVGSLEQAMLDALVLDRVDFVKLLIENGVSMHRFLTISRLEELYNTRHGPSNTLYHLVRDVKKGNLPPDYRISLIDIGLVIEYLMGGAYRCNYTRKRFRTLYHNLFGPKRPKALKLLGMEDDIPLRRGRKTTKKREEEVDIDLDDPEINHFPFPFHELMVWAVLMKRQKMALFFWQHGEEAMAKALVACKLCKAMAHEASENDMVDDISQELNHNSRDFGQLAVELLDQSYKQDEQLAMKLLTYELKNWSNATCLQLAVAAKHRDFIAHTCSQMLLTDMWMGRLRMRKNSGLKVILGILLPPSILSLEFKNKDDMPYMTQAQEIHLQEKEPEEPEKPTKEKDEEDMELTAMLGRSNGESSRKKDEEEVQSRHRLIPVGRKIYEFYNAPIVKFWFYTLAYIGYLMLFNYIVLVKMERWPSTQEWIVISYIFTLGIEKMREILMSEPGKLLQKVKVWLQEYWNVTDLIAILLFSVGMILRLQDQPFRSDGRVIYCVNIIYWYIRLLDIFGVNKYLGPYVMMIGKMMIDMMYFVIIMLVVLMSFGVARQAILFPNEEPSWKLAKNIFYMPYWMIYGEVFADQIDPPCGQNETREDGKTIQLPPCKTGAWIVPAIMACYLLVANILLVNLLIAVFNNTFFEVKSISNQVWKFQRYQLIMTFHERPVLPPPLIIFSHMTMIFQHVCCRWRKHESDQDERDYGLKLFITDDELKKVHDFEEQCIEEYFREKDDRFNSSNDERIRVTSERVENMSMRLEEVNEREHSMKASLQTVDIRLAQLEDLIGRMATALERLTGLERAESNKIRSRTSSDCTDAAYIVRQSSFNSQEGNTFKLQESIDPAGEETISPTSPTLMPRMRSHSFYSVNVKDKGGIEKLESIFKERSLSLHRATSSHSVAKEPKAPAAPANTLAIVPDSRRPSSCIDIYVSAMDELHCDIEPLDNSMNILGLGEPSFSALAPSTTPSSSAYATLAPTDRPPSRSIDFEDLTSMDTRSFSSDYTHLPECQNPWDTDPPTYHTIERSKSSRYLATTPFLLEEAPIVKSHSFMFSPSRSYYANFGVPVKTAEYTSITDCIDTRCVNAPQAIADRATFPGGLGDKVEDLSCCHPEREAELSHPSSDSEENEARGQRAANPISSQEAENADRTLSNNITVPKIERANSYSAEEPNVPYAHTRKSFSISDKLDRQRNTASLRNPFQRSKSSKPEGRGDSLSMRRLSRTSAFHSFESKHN

IC50 [nM]	Structure (SMILES)
1000 to 20000	COCc1oc2ccc(OCc3cccc(F)c3)cc2c1C(=O)O [Cpd 020, 5-((3-fluorobenzyl)oxy)-2-(methoxymethyl)benzofuran-3-carboxylic acid]
1000 to 20000	Cc1oc2ccc(OCc3c(F)cccc3Cl)cc2c1C(=O)O [Cpd 021, 5-((2-chloro-6-fluorobenzyl)oxy)-2-methylbenzofuran-3-carboxylic acid]
1000 to 20000	Cc1oc2ccc(OCc3ccc(F)cc3Cl)cc2c1C(=O)O [Cpd 022, 5-((2-chloro-4-fluorobenzyl)oxy)-2-methylbenzofuran-3-carboxylic acid]
> 20000	O=C(O)c1c(C2CCCC2)oc2ccc(OCc3ccccc3)cc12 [Cpd 023, 5-(benzyloxy)-2-cyclopentylbenzofuran-3-carboxylic acid]
< 1000	Cc1oc2ccc(OCc3ccccc3C(F)(F)F)cc2c1C(=O)O [Cpd 024, 2-methyl-5-((2-(trifluoromethyl)benzyl)oxy)benzofuran-3-carboxylic acid]
1000 to 20000	Cc1oc2ccc(OCc3cccc(C(F)(F)F)c3)cc2c1C(=O)O [Cpd 025, 2-methyl-5-((3-(trifluoromethyl)benzyl)oxy)benzofuran-3-carboxylic acid]
> 20000	Cc1oc2ccc(OCc3ccc(C(F)(F)F)cc3)cc2c1C(=O)O [Cpd 026, 2-methyl-5-((4-(trifluoromethyl)benzyl)oxy)benzofuran-3-carboxylic acid]
> 20000	Cc1oc2ccc(OCc3cccc(OC(F)(F)F)c3)cc2c1C(=O)O [Cpd 028, 2-methyl-5-((3-(trifluoromethoxy)benzyl)oxy)benzofuran-3-carboxylic acid]
> 20000	CCOC(=O)c1coc2ccc(OCc3ccccc3)cc12 [Cpd 029, ethyl 5-(benzyloxy)benzofuran-3-carboxylate]
< 1000	Cc1oc2ccc(OCc3ccccc3)cc2c1C(N)=O [Cpd 035, 5-(benzyloxy)-2-methylbenzofuran-3-carboxamide]
< 1000	Cc1oc2ccc(OCc3ccccc3)cc2c1C(=O)NO [Cpd 036, 5-(benzyloxy)-N-hydroxy-2-methylbenzofuran-3-carboxamide]
> 20000	Cc1oc2ccc(OCc3cccc(F)c3)cc2c1C(N)=O [Cpd 037, 5-((3-fluorobenzyl)oxy)-2-methylbenzofuran-3-carboxamide]
1000 to 20000	CCNC(=O)c1c(C)oc2ccc(OCc3ccccc3)cc12 [Cpd 038, 5-(benzyloxy)-N-ethyl-2-methylbenzofuran-3-carboxamide]
1000 to 20000	Cc1oc2ccc(OCc3ccccc3)cc2c1C(=O)NC1CC1 [Cpd 039, 5-(benzyloxy)-N-cyclopropyl-2-methylbenzofuran-3-carboxamide]
1000 to 20000	CCCNC(=O)c1c(C)oc2ccc(OCc3ccccc3)cc12 [Cpd 040, 5-(benzyloxy)-2-methyl-N-propylbenzofuran-3-carboxamide]
< 1000	Cc1oc2ccc(OCc3c(F)cccc3Cl)cc2c1C(N)=O [Cpd 041, 5-((2-chloro-6-fluorobenzyl)oxy)-2-methylbenzofuran-3-carboxamide]
> 20000	Cc1oc2ccc(OCc3ccccc3)cc2c1C(=O)NC1CNC1 [Cpd 042, N-(azetidin-3-yl)-5-(benzyloxy)-2-methylbenzofuran-3-carboxamide]
< 1000	Cc1oc2ccc(OCc3ccccc3)cc2c1C(=O)NC1COC1 [Cpd 043, 5-(benzyloxy)-2-methyl-N-(oxetan-3-yl)benzofuran-3-carboxamide]
1000 to 20000	COCCNC(=O)c1c(C)oc2ccc(OCc3ccccc3)cc12 [Cpd 044, 5-(benzyloxy)-N-(2-methoxyethyl)-2-methylbenzofuran-3-carboxamide]
< 1000	CNC(=O)c1c(C)oc2ccc(OCc3c(F)cccc3Cl)cc12 [Cpd 045, 5-((2-chloro-6-fluorobenzyl)oxy)-N,2-dimethylbenzofuran-3-carboxamide]
< 1000	Cc1oc2ccc(OCc3ccccc3)cc2c1C(=O)NC1CCCC1 [Cpd 046, 5-(benzyloxy)-N-cyclopentyl-2-methylbenzofuran-3-carboxamide]
> 20000	Cc1oc2ccc(OCc3ccccc3)cc2c1C(=O)N1CCCCC1 [Cpd 047, (5-(benzyloxy)-2-methylbenzofuran-3-yl)(piperidin-1-yl)methanone]
< 1000	Cc1oc2ccc(OCc3ccccc3)cc2c1C(=O)N[C@@H]1CCNC1 [Cpd 048, (R)-5-(benzyloxy)-2-methyl-N-(pyrrolidin-3-yl)benzofuran-3-carboxamide]
< 1000	Cc1oc2ccc(OCc3ccccc3)cc2c1C(=O)N[C@H]1CCNC1 [Cpd 049, (S)-5-(benzyloxy)-2-methyl-N-(pyrrolidin-3-yl)benzofuran-3-carboxamide]
> 20000	Cc1oc2ccc(OCc3ccccc3)cc2c1C(=O)N1CCOCC1 [Cpd 050, (5-(benzyloxy)-2-methylbenzofuran-3-yl)(morpholino)methanone]

IC50 [nM]	Structure (SMILES)
< 1000	Cc1oc2ccc(OCc3ccccc3)cc2c1C(=O)NC1CCOC1 (stereo not shown) [Cpd 051, 5-(benzyloxy)-2-methyl-N-(tetrahydrofuran-3-yl)benzofuran-3-carboxamide]
< 1000	Cc1oc2ccc(OCc3ccccc3)cc2c1C(=O)NC1CC(O)C1 (stereo not shown) [Cpd 052, 5-(benzyloxy)-N-(3-hydroxycyclobutyl)-2-methylbenzofuran-3-carboxamide]
< 1000	Cc1oc2ccc(OCc3ccccc3)cc2c1C(=O)N[C@H]1C[C@H](O)C1 [Cpd 053, 5-(benzyloxy)-N-(trans-3-hydroxycyclobutyl)-2-methylbenzofuran-3-carboxamide]
< 1000	Cc1oc2ccc(OCc3ccccc3)cc2c1C(=O)N[C@H]1C[C@@H](O)C1 [Cpd 054, 5-(benzyloxy)-N-(cis-3-hydroxycyclobutyl)-2-methylbenzofuran-3-carboxamide]
1000 to 20000	Cc1oc2ccc(OCc3ccccc3)cc2c1C(=O)NCCN(C)C [Cpd 055, 5-(benzyloxy)-N-(2-(dimethylamino)ethyl)-2-methylbenzofuran-3-carboxamide]
1000 to 20000	COCCCNC(=O)c1c(C)oc2ccc(OCc3ccccc3)cc12 [Cpd 056, 5-(benzyloxy)-N-(3-methoxypropyl)-2-methylbenzofuran-3-carboxamide]
< 1000	Cc1oc2ccc(OCc3ccccc3)cc2c1C(=O)NCC(O)CO (stereo not shown) [Cpd 057, 5-(benzyloxy)-N-(2,3-dihydroxypropyl)-2-methylbenzofuran-3-carboxamide]
< 1000	Cc1oc2ccc(OCc3ccccc3)cc2c1C(=O)Nc1ccccc1 [Cpd 058, 5-(benzyloxy)-2-methyl-N-phenylbenzofuran-3-carboxamide]
< 1000	Cc1oc2ccc(OCc3ccccc3)cc2c1C(=O)Nc1cccnc1 [Cpd 059, 5-(benzyloxy)-2-methyl-N-(pyridin-3-yl)benzofuran-3-carboxamide]
< 1000	Cc1oc2ccc(OCc3ccccc3)cc2c1C(=O)Nc1ccncc1 [Cpd 060, 5-(benzyloxy)-2-methyl-N-(pyridin-4-yl)benzofuran-3-carboxamide]
< 1000	Cc1oc2ccc(OCc3ccccc3)cc2c1C(=O)Nc1cnccn1 [Cpd 061, 5-(benzyloxy)-2-methyl-N-(pyrazin-2-yl)benzofuran-3-carboxamide]
> 20000	Cc1oc2ccc(OCc3ccccc3)cc2c1C(=O)Nc1cccnn1 [Cpd 062, 5-(benzyloxy)-2-methyl-N-(pyridazin-3-yl)benzofuran-3-carboxamide]
1000 to 20000	Cc1oc2ccc(OCc3ccccc3)cc2c1C(=O)NS(C)(=O)=O [Cpd 063, 5-(benzyloxy)-2-methyl-N-(methylsulfonyl)benzofuran-3-carboxamide]
< 1000	Cc1oc2ccc(OCc3ccccc3)cc2c1C(=O)Nc1ccn(C)n1 [Cpd 064, 5-(benzyloxy)-2-methyl-N-(1-methyl-1H-pyrazol-3-yl)benzofuran-3-carboxamide]
1000 to 20000	Cc1oc2ccc(OCc3c(F)cccc3Cl)cc2c1C(=O)N(C)C [Cpd 065, 5-((2-chloro-6-fluorobenzyl)oxy)-N,N,2-trimethylbenzofuran-3-carboxamide]
< 1000	Cc1oc2ccc(OCc3ccccc3)cc2c1C(=O)NC1CCCCC1 [Cpd 066, 5-(benzyloxy)-N-cyclohexyl-2-methylbenzofuran-3-carboxamide]
1000 to 20000	Cc1oc2ccc(OCc3ccccc3)cc2c1C(=O)N1CCC(C)CC1 [Cpd 067, (5-(benzyloxy)-2-methylbenzofuran-3-yl)(4-methylpiperidin-1-yl)methanone]
1000 to 20000	Cc1oc2ccc(OCc3ccccc3)cc2c1C(=O)NC1CNC(=O)C1 (stereo not shown) [Cpd 068, 5-(benzyloxy)-2-methyl-N-(5-oxopyrrolidin-3-yl)benzofuran-3-carboxamide]
< 1000	Cc1oc2ccc(OCc3ccccc3)cc2c1C(=O)N[C@H]1CCNC1=O [Cpd 069, (S)-5-(benzyloxy)-2-methyl-N-(2-oxopyrrolidin-3-yl)benzofuran-3-carboxamide]
< 1000	Cc1oc2ccc(OCc3ccccc3)cc2c1C(=O)N[C@@H]1CCNC1=O [Cpd 070, 5-(benzyloxy)-2-methyl-N-(2-oxopyrrolidin-3-yl)benzofuran-3-carboxamide]
< 1000	Cc1oc2ccc(OCc3ccccc3)cc2c1C(=O)NC1CCNC1=O (stereo not shown) [Cpd 071, 5-(benzyloxy)-2-methyl-N-(2-oxopyrrolidin-3-yl)benzofuran-3-carboxamide]
> 20000	Cc1oc2ccc(OCc3ccccc3)cc2c1C(=O)N1CCN(C)CC1 [Cpd 072, (5-(benzyloxy)-2-methylbenzofuran-3-yl)(4-methylpiperazin-1-yl)methanone]
> 20000	Cc1oc2ccc(OCc3ccccc3)cc2c1C(=O)N1CCC(N)CC1 [Cpd 073, (4-aminopiperidin-1-yl)(5-(benzyloxy)-2-methylbenzofuran-3-yl)methanone]
< 1000	Cc1oc2ccc(OCc3ccccc3)cc2c1C(=O)NC1CCNCC1 [Cpd 074, 5-(benzyloxy)-2-methyl-N-(piperidin-4-yl)benzofuran-3-carboxamide]
